Experimental data taken from patent US20170304460A1, “METHOD OF CONJUGATING A POLYPEPTIDE” (MedImmune, LLC, priority 2014, published 2017).
Read-outs that look alike come from different tables or passages of the source.

Key:
[1] = system: T289C mAb; assay: Conjugation kinetics of x-maleimide-PEG-biotins with T289C mAb; format: physicochemical; details: for Second order rate constant (k2): conjugation to T289C mAb
Method: x-Maleimide-PEG-biotins were conjugated to mAb (comprising a T289C mutation of the Fc) in several steps. […] Reduced mAb was transferred to a slide-a-lizer dialysis cassette (10K MWCO) and dialyzed against PBS, 1 mM EDTA, pH 7.2-7.8, 4° C. for 24 hr with several buffer changes. Reduced mAb was oxidized to reform internal disulfides by addition of dehydroascorbic acid (21 μL of 50 mM stock in DMSO, 1.1 μmol, 20 eq) followed by gentle mixing for 4 hr at room temperature. Oxidized mAb solution was adjusted to the desired pH by addition of 1M sodium phosphate (monobasic for pH 5.5, dibasic for pH 8.6, or a stock adjusted to pH 7.4) to a final phosphate concentration of 100 mM and mAb concentration of 1.3 mg/mL. Next, 1.15 mL of mAb solution (1.5 mg, 10 nmol, 1 eq) was aliquoted into a vial followed by addition of x-maleimide-PEG-biotin stock solution (2 μL of a 10 mM stock solution in DMAc, 20 nmol, 2 eq). The reaction mixture was briefly vortexed and further incubated for the desired amount of time followed by addition of N-acetly cysteine (10 μL of a 100 mM solution in water, 1 μmol, 100 eq) and further incubation for 15 minutes to quench unreacted maleimide. All conjugation reactions were performed at room temperature (22° C.) under ambient atmosphere. Note that 2 eq x-maleimide-PEG-biotin relative to mAb=1 eq x-maleimide-PEG-biotin relative to free cysteine contained in the mAb. This general procedure was modified as needed to achieve desired reaction stoichiometry (i.e. different maleimide:mAb feeds).
ADC samples were analyzed using an Agilent 6520B Q-TOF mass spectrometer equipped with a RP-HPLC column (Agilent Poroshell 300SB-C3; 5 um, 2.1 mm×75 mm; Part#660750-909). High-performance liquid chromatography (HPLC) parameters were as follows: flow rate, 0.4 ml/min; mobile phase A was 0.1% (v/v) formic acid in HPLC-grade H2O, and mobile phase B was 0.1% (v/v) formic acid in acetonitrile. The column was equilibrated in 90% A/10% B, which was also used to desalt the ADC samples, followed by elution in 40% A/60% B. Mass spec data were collected for 100-3000 m/z, positive polarity, a gas temperature of 350° C., a nebulizer pressure of 48 lb/in^2, and a capillary voltage of 5,000 V. Data were analyzed using vendor-supplied (Agilent v.B.04.00) MassHunter Qualitative Analysis software and peak intensities from deconvoluted spectra were used to derive the relative proportion of reactants and products; and reaction kinetics.
Half-lives were calculated from the derived rate constants using Equation 4 for pseudo-first order reactions (hydrolysis and deconjugation) and Equation 5 for second-order reactions (conjugation): […]
Conjugation data were analyzed in units of molar concentration to determine kinetic constants. Second order rate constants were determined from the slopes of curves generated from plotting 1/[SH] versus time and linear regression analysis.

[2] = Maleimide hydrolysis kinetics (pre-incubation in buffer, then reaction with T289C mAb); format: physicochemical; details: for half-life at 1 mM: sodium phosphate buffer, read-out: Hydrolysis T1/2 (maleimide) (converted)
Method: x-Maleimide-PEG-biotins were pre-incubated in buffer solutions of different pH to assess their stability and thiol conjugation efficiency over time. This assay indirectly monitors maleimide hydrolysis because hydrolyzed maleimides are not reactive towards thiols. Antibody bearing the T289C FC mutation was reduced and oxidized as described above and adjusted to 1.5 mg/mL in PBS containing 50 mM sodium phosphate pH 7.4. Maleimide solutions were prepared in buffer (100 mM sodium phosphate pH 5.5, 7.4, 8.6) by combining 20 μL x-maleimide-PEG-biotin solution (10 mM solution in DMAc) with 180 μL buffer at the desired pH (final x-maleimide-PEG-biotin concentration=1 mM) and incubated at 22° C. for determined time intervals prior to reaction with mAb. For conjugation reactions 267 μL mAb (1.5 mg/mL, 2.7 nmol, 1 eq) was combined with 5.3 μL buffer-incubated x-maleimide-PEG-biotin solution (5.4 nmol, 2 eq). […] The conjugation reaction proceeded at 22° C. for 1.5 hr at pH 7.4. After reaction samples were reduced with DTT at room temperature for 5 min and analyzed by mass spectrometry. Percent conjugation was calculated using equation 1.
Maleimide hydrolysis data were also analyzed in units of molar concentration to determine kinetic constants. Pseudo 1st order rate constants were determined from the slopes of curves generated from plotting ln [maleimide] versus time and linear regression analysis.

[3] = pH 7.0; cited from earlier work
[4] = pH 7.0; cited from earlier work; remark: listed apart in the source
[5] = cited from earlier work
[6] = BME challenge assay: sensitivity of PEG-biotin T289C mAb conjugates to thiol exchange in buffer containing thiols; format: physicochemical; details: pH 7.2, 37° C.
Method: Biotin-mAb conjugates were incubated in aqueous buffer containing β-mercaptoethanol (BME) to challenge the thiosuccinimide linkage against deconjugation. x-Maleimide-PEG-biotins were conjugated to mAb containing the T289C mutation as described above with minor modification. Conjugation reactions were performed at 1 equivalent x-PEG-maleimide:thiol for 15 min at 22° C. followed immediately by dilution to 0.2 mg/mL (1.33 μM mAb) with 1×PBS pH 7.2 containing 0.5 mM EDTA. The N-acetyl cysteine quenching step was omitted. For BME-containing samples, BME was added to a final concentration of 1% v/v (143 mM). Samples were further incubated at 37° C. under ambient atmosphere without stirring. Aliquots were removed at various time points, sterile filtered, reduced with DTT and then analyzed by LC/MS. Percent conjugated mAb and thiosuccinimide hydrolysis were determined from peak heights of mass spectra using Equation 1 and Equation 2, respectively. Deconjugated mAb and thiosuccinimide hydrolysis data were plotted as ln [concentration] vs. time (s) to obtain the pseudo-first order rate constants from the slope of the bestfit line.

[7] = Stability of mAb-biotin conjugates in the presence of free thiol (BME) after mild hydrolysis; format: physicochemical; details: pH 7.2, 37° C.
Method: Biotin-mAb conjugates were incubated in aqueous buffer containing β-mercaptoethanol (BME) to challenge the thiosuccinimide linkage against deconjugation. In this experiment, thiosuccinimide conjugates were subjected to a brief incubation at mildly basic conditions to facilitate thiosuccinimide hydrolysis before the stability challenge. x-Maleimide-PEG-biotins were conjugated to mAb containing the T289C mutation as described above with minor modification. Conjugation reactions were performed at 1 equivalent x-PEG-maleimide:thiol for 15 min at 22° C. followed quenching with N-acetyl cysteine (100 eq rel. to mAb) and further reaction for 5 minutes. Reaction mixtures were adjusted to pH 8.6 by addition of 10% v/v sodium phosphate (1M, dibasic) and then incubated at 37° C. for 1 hr. Reactions were then dialyzed against PBS (pH 7.2) containing 0.5 mM EDTA for 24 hr at 4° C. After dialysis, mAb concentrations were confirmed by A280 measurement (NanoDrop) and samples were diluted to 0.2 mg/mL (1.33 μM mAb) with 1×PBS pH 7.2 containing 0.5 mM EDTA. For BME-containing samples, BME was added to a final concentration of 1% v/v (143 mM). […] Aliquots were removed at various time points, sterile filtered, reduced with DTT and then analyzed by LC/MS. Percent conjugated mAb and thiosuccinimide hydrolysis was determined from peak heights of mass spectra using Equation 1 and Equation 2, respectively. […]

[8] = Thiosuccinimide hydrolysis kinetics for PEG-BCN conjugates; format: physicochemical; details: mAb-PEG-BCN conjugates at T289C, pH 7.2, 22° C.
Method: x-Maleimide-PEG-BCN-mAb conjugates were incubated in buffer solutions and monitored by LC/MS over time to observe thiosuccinimide hydrolysis. Conjugated T289C mAbs were diluted to 0.22 mg/mL with 1×PBS containing 0.5 mM EDTA, pH 7.2 and then dithiothreitol was added (0.5 M stock in water) to achieve a final concentration of 42 mM. Samples were placed into the LC/MS autosampler at 22° C. and injected periodically. Thiosuccinimide hydrolysis was confirmed by addition of 18 amu to the mAb conjugate peak in the mass spectrum. Semi-quantitative analysis of hydrolysis was performed using peak intensities in deconvoluted mass spectra and equation 3, which includes background subtraction using the T=0 measurement. Data was then converted into loss of thiosuccinimide (M) over time and plotted as ln [thiosuccinimide] vs seconds. The slope of the best fit line yielded the pseudo first-order rate constant for thiosuccinimide hydrolysis.

[9] = Reactivity of mAb-BCN conjugate with AC4GlcNAz after storage; format: physicochemical
Method: N-phenyl-maleimide-PEG-BCN-mAb conjugate (100 μL of 1.3, mg/mL solution in PBS with 0.5 mM EDTA, 0.87 nmol) was combined with AC4GlcNAz (1 μL of 500 mM stock in DMSO, 500 nmol). The reaction solution was incubated at room temperature without stirring for 1 hr at 22° C. For long-term reactivity studies, mAb-BCN conjugate was stored at 4° C. in PBS with 0.5 mM EDTA, pH 7.2 and aliquots were removed and reacted with AC4GlcNAz as described above. Conjugates were analyzed by reduced glycosylated mass spectrometry and conjugation efficiency was determined using equation 1.

| Compound | Second order rate constant (k2) ([1]; pH 5.5, 22° C.) [M⁻¹ s⁻¹] | Second order rate constant (k2) ([1]; pH 7.4, 22° C.) [M⁻¹ s⁻¹] | Second order rate constant (k2) ([1]; pH 8.6, 22° C.) [M⁻¹ s⁻¹] | Psuedo first order rate constant (kobs), maleimide hydrolysis ([2]; pH 7.4, 22° C.) [s⁻¹] | Psuedo first order rate constant (kobs), maleimide hydrolysis ([2]; pH 8.6, 22° C.) [s⁻¹] | half-life at 1 mM ([2]; pH 7.4, 22° C.) [h] | half-life at 1 mM ([2]; pH 8.6, 22° C.) [h] | also measured |
| --- | --- | --- | --- | --- | --- | --- | --- | --- |
| O=C(CCCCC1SCC2NC(=O)NC21)NCCOCCOCCOCCOCCOCCOCCOCCNC(=O)Cc1ccc(N2C(=O)C=CC2=O)cc1 (centres unmarked) [Phenyl maleimide-PEG-biotin, maleimidophenylacetyl-PEG7-biotin] | 23.8 | 1300 | ~34000 | 8.5e-05 | 0.00076 | 2.3 | 0.3 |  |
| 2-fluoro-5-maleimidophenyl-PEG7-biotin [F-phenyl maleimide-PEG-biotin] |  |  |  |  |  |  |  | thiol conjugation is complete in ([1]; pH 8.6): 15 s |
| CCN1C(=O)C=CC1=O [N-ethyl maleimide] |  |  |  |  |  |  |  | k2, reaction with cysteine [3]: 1620 M⁻¹ s⁻¹; k2, reaction with β-mercaptoethanol [4]: 710 M⁻¹ s⁻¹ |
| O=C1C=CC(=O)N1c1ccccc1 [N-phenyl maleimide] |  |  |  |  |  |  |  | kobs, hydrolysis ([5]; pH 7.6, 25° C.): 7e-05 s⁻¹ |
| N-fluorophenyl thiosuccinimide |  |  |  |  |  |  |  | Max deconjugation + BME ([6]; 1% v/v BME): 10%; Max deconjugation − BME ([6]; without BME): None; Max deconjugation + BME ([7]; 1% v/v BME): None; Max deconjugation − BME ([7]; without BME): None |
| Phenyl thiosuccinimide |  |  |  |  |  |  |  | Psuedo first order rate constant (kobs), thiosuccinimide hydrolysis [8]: 1.9e-05 s⁻¹; Azide conjugation (BCN reactivity) ([9]; 1 day storage at 4° C.): quantitative; Azide conjugation (BCN reactivity) ([9]; 4 days storage at 4° C.): quantitative; Azide conjugation (BCN reactivity) ([9]; 7 days storage at 4° C.): quantitative; Azide conjugation (BCN reactivity) ([9]; 10 days storage at 4° C.): quantitative; Azide conjugation (BCN reactivity) ([9]; 15 days storage at 4° C.): quantitative; Azide conjugation (BCN reactivity) ([9]; 21 days storage at 4° C.): quantitative; time without loss of BCN reactivity ([9]; after conjugation and storage at 4° C.): > 21 days |
| O=C(CCCCC1SCC2NC(=O)NC21)NCCOCCOCCOCCOCCOCCOCCOCCNC(=O)c1cc(N2C(=O)C=CC2=O)ccc1F (centres unmarked) [F-phenyl maleimide-PEG-biotin, 2-fluoro-5-maleimidophenyl-PEG7-biotin] | 55.4 | 4500 | ~39000 | 0.00017 | 0.0019 | 1.1 | 0.1 |  |
| O=C1C=CC(=O)N1 [maleimide] |  |  |  |  |  |  |  | kobs, hydrolysis ([5]; pH 8.38, 30° C.): 0.000151 s⁻¹ |
| O=C(CCCCC1SCC2NC(=O)NC21)NCCOCCOCCOCCOCCOCCOCCOCCNC(=O)CCN1C(=O)C=CC1=O (centres unmarked) [Alkyl maleimide-PEG-biotin, maleimidoproprionyl-PEG7-biotin, reference compound] | 13 | 500 | ~28000 | 2.3e-05 | 0.0002 | 7.7 | 1 |  |
